Test results as given in patent EP0974351A2, “Medicament for preventing and treating gastrointestinal damage” (JOUVEINAL, priority 1998, dated 2000).

Columns and labels:
[1] = system: Inflammatory Colonic Pain Induced by Intramural Injection of Formalin 5%; experiment: Inflammatory colonic pain induced by intramural injection of formalin 5% in rats; assay type: in vivo, Adult female Sprague-Dawley rats; settings: for % Antinociception: intracolonic formalin 5%, 50 µL/rat; for pain score induced by intracolonic formalin (in words): gabapentin 100, 300, 500 mg/kg sc, CI-1008 100, 200 mg/kg sc
Method: The GABA analogs were evaluated in another model to determine their effect on inflammatory visceral pain.
Administration of formalin into the wall of the rat colon causes acute inflammation and visceral pain. The aim of this study was to evaluate the antinociceptive activity of gabapentin and CI-1008 in visceral pain induced by colonic intrapariental injection of formalin.
Adult female Sprague-Dawley rats weighing 240 to 260 g were used in the study. The animals were housed three per cage in a regulated environment (20 ± 1°C 50 ± 5% humidity, with light 8:00 AM to 8:00 PM) prior to use in the test.
Each test animal was placed in a transparent plastic cage (27 x 43 x 25 cm) with a layer of wood shavings on the floor. Drinking water was available. Cages were placed in such a way that visual interaction between animals was avoided. A mirror was positioned behind each cage to improve the recording of behaviors. Each animal was initially allowed 20 minutes to get used to its surroundings. Anesthesia was then achieved by using isofurane (starting 4%, then 1.5% in a mixture of […] nitrous oxide and 1:3 oxygen). The animal was suspended by its tail, the rectum was gently emptied with a cotton-capped stalk, and a coloscope was inserted through the anus. This designed endoscope has a lateral slot that allows for puncture of the intestinal wall under visual control, using a 51-mm-long needle (26 ga), at about 35 mm from the anal margin. Injected solutions were either 50 µL 5% formalin, or the same volume of isotonic saline. Animals were allowed to recover from anesthesia as soon as the injection was completed (about 1 minute), and the observation period was started and continued for 2 hours. Thirty minutes after the end of the observation test, an IV injection of Evans Blue (1%) was administered, and 30 minutes later the animal was sacrificed. The abdomen was opened. The injection site and the zone of diffusion of Evans Blue were recorded by image analysis software. Data from rats in which the spread of the dye was not restricted to the sigmoid wall were discarded.
As listed in increasing order of pain intensity, these behaviors were: (i) abdominal licking and nibbling (L), (ii) body stretching, i.e., backward extension of the hind limbs (B), (iii) contraction of the flanks, sometimes evolving to a stretching attitude (C), and (iv) whole body contraction, the rat standing with its back curved, occasionally further graded according to the duration of the given episode: W1 for less than 30 seconds, W2 between 30 seconds and 1 minute, and W3 for more than 1 minute. Behaviors were recorded for each animal throughout the 2-hour test on individual charts. A pain score (S) was then calculated for each of the successive 15-minute periods, using the following formula: S = 1L + 2B + 3C + 4W1 + 5W2 + 6W3 [formula] whereby the pain score was proportional to (i) the number of episodes of each selected behavior, and (ii) the coefficient, from 1 to 6, attributed to the given behaviors.
All compounds were dissolved in saline. Subcutaneous injection of vehicle was given in a volume of […]. Formalin was purchased from Prolabo.
Statistical significance between each group was determined by using a one-way ANOVA followed by Student's unpaired t-test. Differences were considered statistically significant at p <0.05.
Hyperalgesia is induced by intramural injection of formalin (5%, 50 µL/rat) into the colonic wall in unfasted female Sprague-Dawley rats. Gabapentin and CI-1008 were tested at 100, 300, 500 and 100, 200 mg/kg sc, respectively. […] The maximal inhibitory effect was observed after 500 mg/kg of gabapentin and 200 mg/kg of CI-1008.

PGE2 = PGE2 content of gastric mucosa biopsies (ELISA) in indomethacin-treated rats; assay type: in vivo, Male CD-Sprague-Dawley rats; settings: for effect on the inhibition of PGE2 caused by indomethacin: any dose tested (1-200 mg/kg orally)
Method: Male CD-Sprague-Dawley rats (132-202 g) were received and housed in a room with controlled temperature, humidity, and 12-hour light/dark cycle. After a period of acclimatization of 4 to 5 days, and after a 24-hour food fasting period, animals were used for the study described below.
Gabapentin or pregabalin (CI-1008) were dissolved in water and administered orally at the following doses: 1, 10, 100, and 200 mg/kg in a volume of 1 mL. Control animals were dosed with an equal volume of vehicle (1 mL of water). Sixty minutes later, all the animals received 1 mL of a solution of 80 mg/kg indomethacin dissolved in 5% aqueous NaHCO3. Control animals received 1 mL of 5% aqueous NaHCO3 orally. Experimental groups were as follows:
Animals were sacrificed by decapitation 4 hours post-indomethacin administration. The stomach was removed and opened along the greater curvature and its image digitized and stored on an optical disk using a 486-based PC computer equipped with CUE3 system imaging analysis software (Olympus Corp., Marietta, Georgia, USA). Two 6-mm biopsies were taken from a constant region of the gastric mucosa located in each side of the glandular portion of the stomach and their PGE2 content was measured using a commercially available ELISA kit (Assay Designs Inc., Ann Arbor, Michigan, USA). The presence of gastric damage was determined using the retrieved electronic image, and the extent of damage was measured using the CUE3 imaging software. Data are expressed as a percent of gastric area damaged and the PGE2 content (pg/mL).

[2] = system: Colonic Threshold in Normal Rats; experiment: Colonic distension pain threshold in normal rats; assay type: in vivo, Male Sprague-Dawley rats; settings: normal rats, control 43.33, NS vs control
Method: Male Sprague-Dawley rats weighing 340 to 400 g were used in the study. The animals were housed three per cage in a regulated environment (20 ± 1°C, 50 ± 5% humidity, with light 8:00 AM to 8:00 PM). Under anethesia (ketamine 80 mg/kg i.p.; acepromazin 12 mg/kg i.p.), TNBS (50 mg/kg), or saline (1.5 mL/kg) was injected into the proximal colon (1 cm from the cecum). After the surgery, animals were individually housed in the regulated environment.
A balloon catheter (5-6 cm length) was inserted through the anus into the colon and kept in position (tip of balloon 5 cm from the anus) by taping the catheter to the base of the tail. The balloon was progressively inflated by step of 5 mm Hg, from 0 to 75 mm Hg, each step of inflation lasting 30 seconds. Each cycle of colonic distension was controlled by a standard barostat. The threshold corresponds to the pressure which produced the first abdominal contraction, at which time the cycle of distension was discontinued. To determine the colonic threshold, four cycles of distension were performed on the same animal.
In a first series of experiments, a group of eight rats treated with saline were subjected to a colonic distension session.
All test compounds were dissolved in saline except TNBS. TNBS was dissolved in EtOH 30% (w/v). Subcutaneous injection of vehicle was given in a volume of […].
Statistical significance between each group was determined using a one-way ANOVA followed by Student's unpaired t-test. Differences were considered statistically significant at p <0.05.

[3] = 1 mg/kg orally before indomethacin 80 mg/kg, control 9525.27 ± 156.00, indomethacin + vehicle 1908.03 ± 72.31
[4] = 10 mg/kg orally before indomethacin 80 mg/kg, indomethacin + vehicle 1908.03 ± 72.31
[5] = 100 mg/kg orally before indomethacin 80 mg/kg, indomethacin + vehicle 1908.03 ± 72.31
[6] = 200 mg/kg orally before indomethacin 80 mg/kg, indomethacin + vehicle 1908.03 ± 72.31

| Compound | % Antinociception ([1]; 0.3 mg/kg sc (so in the source)) [%] | % Antinociception ([1]; 100 mg/kg sc) [%] | % Antinociception ([1]; 300 mg/kg sc) [%] | % Antinociception ([1]; 500 mg/kg sc) [%] | pain score induced by intracolonic formalin (in words) [1] | PGE2 Synthesis (PGE2; [3]) [pg/mL] | PGE2 Synthesis (PGE2; [4]) [pg/mL] | PGE2 Synthesis (PGE2; [5]) [pg/mL] | PGE2 Synthesis (PGE2; [6]) [pg/mL] | effect on the inhibition of PGE2 caused by indomethacin (PGE2) | Colonic Threshold ([2]; 500 mg/kg sc) [mm Hg] | % Antinociception ([1]; 200 mg/kg sc) [%] | Colonic Threshold ([2]; 200 mg/kg sc) [mm Hg] |
| --- | --- | --- | --- | --- | --- | --- | --- | --- | --- | --- | --- | --- | --- |
| NCC1(CC(=O)O)CCCCC1 [Gabapentin, 1-(aminomethyl)-cyclohexane acetic acid] | -7.73 | 13.62 | 55.07 | 88.01 | significantly and dose-dependently decreased | 1783.66 ± 73.47 | 3065.78 ± 137.19 | 2997.90 ± 226.80 | 2615.74 ± 165.36 | Neither gabapentin nor CI-1008, at any dose tested, were able to significantly modify this effect | 43.75 | – | – |
| CC(C)C[C@H](CN)CC(=O)O [CI-1008, (S)-3-(aminomethyl)-5-methylhexanoic acid] | – | 18.55 | – | – | significantly and dose-dependently decreased | 1209.95 ± 105.50 | 2666.16 ± 307.45 | 3994.45 ± 318.95 | 3288.92 ± 407.43 | Neither gabapentin nor CI-1008, at any dose tested, were able to significantly modify this effect | – | 70.81 | 46.41 |
